Laboratory results from US20250228239A1, “MOLECULES HAVING PESTICIDAL UTILITY, AND INTERMEDIATES, COMPOSITIONS, AND PROCESSES, RELATED THERETO” (priority 2024, published 2025).

What was measured:
Assay type in all cases: in vivo
[1] = system: Cabbage Looper (Trichoplusia ni, TRIPNI); test: Bioassays on Cabbage Looper (CL), 128-well diet tray assay; details: Trichoplusia ni; Cabbage Looper, Table ABC / ABC-DP rating; read-out: CL rating
Procedure, shortened: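 Each of eight wells receives artificial diet treated at 50 μg/cm^2 with the test molecule, then one to five second-instar larvae. Incubation runs five to seven days at 25° C with a 14:10 light-dark cycle under vented covers. Mortality is scored per well as a percentage and averaged.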

[2] = system: Beet Armyworm (Spodoptera exigua, LAPHEG); test: Bioassays on Beet Armyworm (BAW), 128-well diet tray assay; details: Spodoptera exigua; Beet Armyworm, Table ABC / ABC-DP rating; read-out: BAW rating
Procedure, shortened: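 Percent larval mortality, averaged across eight wells, scored after five to seven days at 25° C. under 14:10 light-dark. Each well held one to five second instars feeding on diet dosed at 50 μg/cm^2 with compound from 90:10 acetone-water, solvent dried off.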

[3] = system: Yellow Fever Mosquito (Aedes aegypti, AEDSAE); details: Yellow Fever Mosquito, Table ABC / ABC-DP rating
Procedure, shortened: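 Compounds from 4000 ppm DMSO stocks were diluted in 90:10 water/acetone and dispensed into wells, then infested with about 1-day-old larvae in liver-powder water. Covered plates were held at room temperature for 3 days and each well was scored for mortality against a rating scale; six replicate plates per compound.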

| Structure (SMILES) | pest or weed control at 50 µg/cm2 [1] [%] | pest or weed control at 50 µg/cm2 [2] [%] | YFM rating [3] |
| --- | --- | --- | --- |
| CC(=O)CNC(=O)c1cc(NC(=O)[C@H]2[C@H](c3cc(Cl)cc(Cl)c3)C2(Cl)Cl)cc(F)c1Cl (relative stereo) [F2090, trans-2-Chloro-5-(2,2-dichloro-3-(3,5-dichlorophenyl)cyclopropane-1-carboxamido)-3-fluoro-N-(2-oxopropyl)benzamide] | 50 to 100 | 50 to 100 | A (80–100) |
| O=C(NCC(F)(F)c1ccccc1)c1cc(NC(=O)[C@H]2[C@H](c3cc(Cl)cc(Cl)c3)C2(Cl)Cl)cc(F)c1Cl (relative stereo) [F2091, trans-2-Chloro-5-(2,2-dichloro-3-(3,5-dichlorophenyl)cyclopropane-1-carboxamido)-N-(2,2-difluoro-2-phenylethyl)-3-fluorobenzamide] | 50 to 100 | 50 to 100 | A (80–100) |
| O=C(CCNC(=O)c1cc(NC(=O)[C@H]2[C@H](c3cc(Cl)cc(Cl)c3)C2(Cl)Cl)ccc1Cl)NCCC(F)(F)F (relative stereo) [F2092, trans-2-Chloro-5-(2,2-dichloro-3-(3,5-dichlorophenyl)cyclopropane-1-carboxamido)-N-(3-oxo-3-(3,3,3-trifluoropropylamino)propyl)benzamide] | 50 to 100 | 50 to 100 | B (More than 0 – Less than 80) |
| O=C(CCCNC(=O)c1cc(NC(=O)[C@H]2[C@H](c3cc(Cl)cc(Cl)c3)C2(Cl)Cl)ccc1Cl)NCCC(F)(F)F (relative stereo) [F2093, trans-2-Chloro-5-(2,2-dichloro-3-(3,5-dichlorophenyl)cyclopropanecarboxamido)-N-(4-oxo-4-(3,3,3-trifluoropropylamino)butyl)benzamide] | 50 to 100 | 50 to 100 | B (More than 0 – Less than 80) |
| O=C(NCCCNC(=O)C(F)(F)F)c1cc(NC(=O)[C@H]2[C@H](c3cc(Cl)cc(Cl)c3)C2(Cl)Cl)ccc1Cl (relative stereo) [F2094, trans-2-Chloro-5-(2,2-dichloro-3-(3,5-dichlorophenyl)cyclopropane-1-carboxamido)-N-(3-(2,2,2-trifluoroacetamido)propyl)benzamide] | 50 to 100 | 50 to 100 | B (More than 0 – Less than 80) |
| O=C(NCCCCNC(=O)C(F)(F)F)c1cc(NC(=O)[C@H]2[C@H](c3cc(Cl)cc(Cl)c3)C2(Cl)Cl)ccc1Cl (relative stereo) [F2095, trans-2-Chloro-5-(2,2-dichloro-3-(3,5-dichlorophenyl)cyclopropane-1-carboxamido)-N-(4-(2,2,2-trifluoroacetamido)butyl)benzamide] | 50 to 100 | 50 to 100 | A (80–100) |
| O=C(NCCNC(=O)C(F)(F)C(F)(F)F)c1cc(NC(=O)[C@H]2[C@H](c3cc(Cl)cc(Cl)c3)C2(Cl)Cl)ccc1Cl (relative stereo) [F2096, trans-2-Chloro-5-(2,2-dichloro-3-(3,5-dichlorophenyl)cyclopropane-1-carboxamido)-N-(2-(2,2,3,3,3-pentafluoropropanamido)ethyl)benzamide] | 50 to 100 | 50 to 100 | B (More than 0 – Less than 80) |
| O=C(NCCCNC(=O)C(F)(F)C(F)(F)F)c1cc(NC(=O)[C@H]2[C@H](c3cc(Cl)cc(Cl)c3)C2(Cl)Cl)ccc1Cl (relative stereo) [F2097, trans-2-Chloro-5-(2,2-dichloro-3-(3,5-dichlorophenyl)cyclopropane-1-carboxamido)-N-(3-(2,2,3,3,3-pentafluoropropanamido)propyl)benzamide] | 50 to 100 | 50 to 100 | A (80–100) |
| O=C(NCCCCNC(=O)C(F)(F)C(F)(F)F)c1cc(NC(=O)[C@H]2[C@H](c3cc(Cl)cc(Cl)c3)C2(Cl)Cl)ccc1Cl (relative stereo) [F2098, trans-2-Chloro-5-(2,2-dichloro-3-(3,5-dichlorophenyl)cyclopropane-1-carboxamido)-N-(4-(2,2,3,3,3-pentafluoropropanamido)butyl)benzamide] | 50 to 100 | 50 to 100 | B (More than 0 – Less than 80) |
| O=C(NNc1ccccn1)c1cc(NC(=O)[C@H]2[C@H](c3cc(Cl)cc(Cl)c3)C2(Cl)Cl)ccc1Cl (relative stereo) [F2502, trans-2,2-dichloro-N-(4-chloro-3-(2-(pyridin-2-yl)hydrazine-1-carbonyl)phenyl)-3-(3,5-dichlorophenyl)cyclopropane-1-carboxamide] | 50 to 100 | 50 to 100 | A (80–100) |
| O=C(NNc1ccc(Cl)cn1)c1cc(NC(=O)[C@H]2[C@H](c3cc(Cl)cc(Cl)c3)C2(Cl)Cl)ccc1Cl (relative stereo) [F2504, trans-2,2-Dichloro-N-(4-chloro-3-(2-(5-chloropyridin-2-yl)hydrazine-1-carbonyl)phenyl)-3-(3,5-dichlorophenyl)cyclopropane-1-carboxamide] | 50 to 100 | 50 to 100 | A (80–100) |
| O=C(NNc1ncccc1Cl)c1cc(NC(=O)[C@H]2[C@H](c3cc(Cl)cc(Cl)c3)C2(Cl)Cl)ccc1Cl (relative stereo) [F2505, trans-2,2-Dichloro-N-(4-chloro-3-(2-(3-chloropyridin-2-yl)hydrazine-1-carbonyl)phenyl)-3-(3,5-dichlorophenyl)cyclopropane-1-carboxamide] | 50 to 100 | 50 to 100 | A (80–100) |
| O=C(NNc1ccc(Cl)nn1)c1cc(NC(=O)[C@H]2[C@H](c3cc(Cl)cc(Cl)c3)C2(Cl)Cl)ccc1Cl (relative stereo) [F2506, trans-2,2-Dichloro-N-(4-chloro-3-(2-(6-chloropyridazin-3-yl)hydrazine-1-carbonyl)phenyl)-3-(3,5-dichlorophenyl)cyclopropane-1-carboxamide] | 50 to 100 | 50 to 100 | A (80–100) |
| CN(NC(=O)c1cc(NC(=O)[C@H]2[C@H](c3cc(Cl)cc(Cl)c3)C2(Cl)Cl)ccc1Cl)c1cc(C(F)(F)F)ccn1 (relative stereo) [F2507, trans-2,2-Dichloro-N-(4-chloro-3-(2-methyl-2-(4-(trifluoromethyl)pyridin-2-yl)hydrazine-1-carbonyl)phenyl)-3-(3,5-dichlorophenyl)cyclopropane-1-carboxamide] | 50 to 100 | 50 to 100 | A (80–100) |
| O=C(NNc1ncccn1)c1cc(NC(=O)[C@H]2[C@H](c3cc(Cl)cc(Cl)c3)C2(Cl)Cl)ccc1Cl (relative stereo) [F2508, trans-2,2-Dichloro-N-(4-chloro-3-(2-(pyrimidin-2-yl)hydrazine-1-carbonyl)phenyl)-3-(3,5-dichlorophenyl)cyclopropane-1-carboxamide] | 50 to 100 | 50 to 100 | A (80–100) |
| O=C(NNc1ccncn1)c1cc(NC(=O)[C@H]2[C@H](c3cc(Cl)cc(Cl)c3)C2(Cl)Cl)ccc1Cl (relative stereo) [F2509, trans-2,2-Dichloro-N-(4-chloro-3-(2-(pyrimidin-4-yl)hydrazine-1-carbonyl)phenyl)-3-(3,5-dichlorophenyl)cyclopropane-1-carboxamide] | 50 to 100 | 50 to 100 | A (80–100) |
| CC(=O)NNC(=O)c1cc(NC(=O)[C@H]2[C@H](c3cc(Cl)cc(Cl)c3)C2(Cl)Cl)ccc1Cl (relative stereo) [F2514, trans-N-(3-(2-acetylhydrazine-1-carbonyl)-4-chlorophenyl)-2,2-dichloro-3-(3,5-dichlorophenyl)cyclopropane-1-carboxamide] | 50 to 100 | 50 to 100 | A (80–100) |
| O=C(NNC(=O)C(F)(F)F)c1cc(NC(=O)[C@H]2[C@H](c3cc(Cl)cc(Cl)c3)C2(Cl)Cl)ccc1Cl (relative stereo) [F2515, trans-2,2-Dichloro-N-(4-chloro-3-(2-(2,2,2-trifluoroacetyl)hydrazine-1-carbonyl)phenyl)-3-(3,5-dichlorophenyl)cyclopropane-1-carboxamide] | 50 to 100 | 50 to 100 | A (80–100) |
| N#CC1(C(=O)NNC(=O)c2cc(NC(=O)[C@H]3[C@H](c4cc(Cl)cc(Cl)c4)C3(Cl)Cl)ccc2Cl)CC1 (relative stereo) [F2518, trans-2,2-Dichloro-N-(4-chloro-3-(2-(1-cyanocyclopropane-1-carbonyl)hydrazine-1-carbonyl)phenyl)-3-(3,5-dichlorophenyl)cyclopropane-1-carboxamide] | 50 to 100 | 50 to 100 | A (80–100) |
| O=C(NNC(=O)c1cc(NC(=O)[C@H]2[C@H](c3cc(Cl)cc(Cl)c3)C2(Cl)Cl)ccc1Cl)c1ccccc1 (relative stereo) [F2519, trans-N-(3-(2-Benzoylhydrazine-1-carbonyl)-4-chlorophenyl)-2,2-dichloro-3-(3,5-dichlorophenyl)cyclopropane-1-carboxamide] | 50 to 100 | 50 to 100 | A (80–100) |
